# From patent US20130122085A1, “PHARMACEUTICAL COMPOSITIONS OF SELECTIVE ANDROGEN RECEPTOR MODULATORS AND METHODS OF USE THEREOF” (priority 2011, published 2013)
# How the values were obtained:
# patients with cancer = assay: Phase II double-blind, placebo-controlled study in cancer patients with weight loss; type: in vivo, human; conditions: 3 mg dose, 4 months
# Method: A Phase II double-blind, placebo-controlled study was performed with patients with cancer that had experienced at least a 2% total body weight loss in the 6 months prior to the study. The subjects received S-I or matching placebo for 4 months. In this study, no exercise program was mandated and no diet control or monitoring was conducted. The primary endpoint of this study was total lean body mass. The key secondary endpoint of this study was physical function (stair climb speed and power).
# [1] = test system: ovariectomized female rats; assay: Delivery system study: lean body mass and serum HDL in OVX rats; type: in vivo, rat; conditions: 14 days, 0.13 mg/kg/day constant rate subcutaneous infusion (Alzet pump) vs daily subcutaneous injection
# Method: Female rats were ovariectomized and randomized by body weight into groups of 10. Treatment groups included: (1) 3 mg/kg/day DHT administered daily via subcutaneous injection, (2) 0.13 mg/kg/day S-I administered daily via subcutaneous injection, and (3) 0.13 mg/kg/day S-I administered at a constant rate via subcutaneous infusion by an Alzet pump. Baseline measurements of fasting serum HDL as determined by enzymatic assay were performed via retroorbital blood draw for all animals. Baseline lean body mass (LBM) as determined by magnetic resonance was determined for all animals. After 14 days of treatment, changes from baseline in lean body mass (Δ LBM) and fasting serum HDL (Δ HDL) were determined and represented as a percentage of DHT treated animals.
# [2] = Exposure of S-I in female rats; type: in vivo, rat
# Method: The exposure of S-I in female rats was AUCinf of 147,000 ng*hr/ml following a single 10 mg per kg IV dose. With the reasonable assumption that the SC Alzet pump dose was completely absorbed, a 0.13 mg per kg dose should result in an exposure of −1911 ng*hr/mL in rats. […] In other words, the 0.13 mg per kg per day Alzet dose in rats is equivalent to a 10 mg per day continuous release dose in humans, such as might be accomplished by a mechanical or osmotic pump, or transdermal patch, or the like.
# [3] = Steady-state exposure in healthy young men (G100402, MAD); conditions: male, human, in vivo, 10 mg daily doses
structure (smiles),measurement,setting,value
"C[C@](O)(COc1ccc(C#N)cc1)C(=O)Nc1ccc(C#N)c(C(F)(F)F)c1 [Compound S-I, (S)—N-(4-cyano-3-(trifluoromethyl)phenyl)-3-(4-cyanophenoxy)-2-hydroxy-2-methylpropanamide]",power subjects were able to exert climbing 12 steps,"patients with cancer; p=0.001 compared to baseline, p=0.058 compared to placebo",statistically significant increase
same,time it took the subjects to climb 12 steps,"patients with cancer; p=0.007 compared to baseline, p=0.028 compared to placebo",statistically significant decrease
same,total lean body mass,"patients with cancer; p=0.015 compared to placebo, p=0.020 compared to baseline",statistically significant increase
same,change from baseline in fasting serum HDL (Δ HDL),[1],smaller decrease in serum HDL
same,change from baseline in lean body mass (Δ LBM),[1],larger increase in LBM than daily subcutaneous injections
same,AUC(0-inf),"[2]; rat, in vivo, 10 mg/kg, female rats, single 10 mg per kg IV dose",147000 ng·h/mL
same,exposure expected at 0.13 mg per kg dose,"[2]; rats, SC Alzet pump dose assumed completely absorbed, extrapolated from 10 mg per kg IV",-1911 ng·h/mL
same,AUC(0-t),[3],1750 ng·h/mL
